What was measured:
[1] = target: CDK4 (Homo sapiens, UniProt P11802+Q16531); experiment: HiBiT detection of HiBiT-tagged CDK4 protein level in MCF7 cells, 16 hours (Table 8); format: cell-based; design: expressed in transfected cells; host or cells: MCF7; conditions: MCF7 cells stably expressing HiBiT tagged target proteins; for activity at 0.01 µM: 10 nM, read-out: % CDK4 Relative Level (10 nM); for activity at 0.1 µM: 100 nM, read-out: % CDK4 Relative Level (100 nM)
Procedure: HiBiT detection system quantitatively measures total amounts of HiBiT-tagged proteins using a luminescent based method. MCF7 cells stably expressing HiBiT tagged target proteins were treated with heterobifunctional compounds at indicated concentrations for 16 hours, then lysed with Nano-Glo HiBiT Lytic detection reagents.

[2] = test system: MCF7 cells; experiment: Anti-proliferation (viability) of MCF7 cells (Table 7, FIG. 2B); format: cell-based; conditions: Homo sapiens, MCF7, MCF7 cells, 3-6 days, 10-point serial dilution; read-out: GI IC50 in MCF-7

CDK4, sequence (P11802 whole entry): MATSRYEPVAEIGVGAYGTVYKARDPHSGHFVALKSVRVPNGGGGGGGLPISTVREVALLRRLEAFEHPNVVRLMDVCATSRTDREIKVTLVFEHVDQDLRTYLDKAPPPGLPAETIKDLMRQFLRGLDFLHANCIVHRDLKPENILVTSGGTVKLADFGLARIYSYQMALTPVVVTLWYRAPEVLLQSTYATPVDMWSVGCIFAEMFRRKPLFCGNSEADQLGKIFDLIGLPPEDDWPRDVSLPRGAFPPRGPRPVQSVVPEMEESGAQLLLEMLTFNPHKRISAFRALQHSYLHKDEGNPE
CDK4, sequence (P24385 whole entry partner): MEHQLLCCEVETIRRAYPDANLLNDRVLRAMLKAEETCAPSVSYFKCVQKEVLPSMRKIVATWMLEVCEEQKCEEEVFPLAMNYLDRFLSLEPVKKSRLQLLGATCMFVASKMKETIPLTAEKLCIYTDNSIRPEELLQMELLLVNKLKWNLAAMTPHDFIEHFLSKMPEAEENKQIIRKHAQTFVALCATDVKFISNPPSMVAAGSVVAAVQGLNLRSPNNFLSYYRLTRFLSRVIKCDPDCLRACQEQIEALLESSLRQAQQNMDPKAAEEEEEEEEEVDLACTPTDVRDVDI
CDK4, sequence (Q16531 2-1140 limits assumed): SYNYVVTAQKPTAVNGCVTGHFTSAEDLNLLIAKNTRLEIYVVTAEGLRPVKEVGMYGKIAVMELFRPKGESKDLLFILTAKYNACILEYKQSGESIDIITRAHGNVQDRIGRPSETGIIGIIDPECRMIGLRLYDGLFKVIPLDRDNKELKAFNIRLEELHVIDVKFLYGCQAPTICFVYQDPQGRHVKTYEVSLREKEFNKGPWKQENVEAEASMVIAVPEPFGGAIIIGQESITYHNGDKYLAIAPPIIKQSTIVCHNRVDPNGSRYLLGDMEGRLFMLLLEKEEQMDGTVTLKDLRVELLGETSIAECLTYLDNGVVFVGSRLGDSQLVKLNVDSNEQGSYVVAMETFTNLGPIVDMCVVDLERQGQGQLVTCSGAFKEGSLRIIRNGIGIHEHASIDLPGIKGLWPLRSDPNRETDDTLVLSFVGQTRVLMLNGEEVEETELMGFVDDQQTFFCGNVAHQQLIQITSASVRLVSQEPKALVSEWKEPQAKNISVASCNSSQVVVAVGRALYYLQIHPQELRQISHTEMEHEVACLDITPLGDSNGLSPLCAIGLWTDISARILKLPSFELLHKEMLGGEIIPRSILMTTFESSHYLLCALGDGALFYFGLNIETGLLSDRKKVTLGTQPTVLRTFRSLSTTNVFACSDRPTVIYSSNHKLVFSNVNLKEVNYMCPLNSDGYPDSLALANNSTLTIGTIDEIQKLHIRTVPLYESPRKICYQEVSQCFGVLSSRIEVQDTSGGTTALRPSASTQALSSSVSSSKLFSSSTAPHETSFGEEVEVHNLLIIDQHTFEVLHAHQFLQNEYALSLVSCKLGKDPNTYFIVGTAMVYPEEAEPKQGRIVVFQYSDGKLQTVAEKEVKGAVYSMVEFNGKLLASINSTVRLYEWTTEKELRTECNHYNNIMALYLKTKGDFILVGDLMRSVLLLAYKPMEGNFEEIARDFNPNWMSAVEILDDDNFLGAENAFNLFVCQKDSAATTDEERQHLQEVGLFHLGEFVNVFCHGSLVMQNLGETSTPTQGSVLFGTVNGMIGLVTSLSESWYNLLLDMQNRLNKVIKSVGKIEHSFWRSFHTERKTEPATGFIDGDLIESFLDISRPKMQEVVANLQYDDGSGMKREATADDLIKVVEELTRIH

SMILES | activity at 0.01 µM [1] | activity at 0.1 µM [1] | IC50 [2]
CC(=O)c1c(C)c2cnc(Nc3ccc(N4CCN(CC(=O)NCC56CC(Nc7nc(NC(C)C)ccc7C(=O)Nc7ccc(N(C)C)nn7)(C5)C6)CC4)cn3)nc2n(C2CCCC2)c1=O [CPD-429, 2-((3-((2-(4-(6-((6-acetyl-8-cyclopentyl-5-methyl-7-oxo-7,8-dihydropyrido[2,3-d]pyrimidin-2-yl)amino)pyridin-3-yl)piperazin-1-yl)acetamido)methyl)bicyclo[1.1.1]pentan-1-yl)amino)-N-(6-(dimethylamino)pyridazin-3-yl)-6-(isopropylamino)nicotinamide] | 55 to 85% | 55 to 85% | < 50 nM
[2H]C([2H])([2H])Nc1ccc(C(=O)Nc2cc(C)n(C)n2)c(NC2CC3(C2)CN(C(=O)CN2CCC4(CCN(c5ccc(Nc6ncc7c(C)c(C(C)=O)c(=O)n(C8CCCC8)c7n6)nc5)C4)C2)C3)n1 (stereo not drawn) [CPD-447, 2-((2-(2-(7-(6-((6-acetyl-8-cyclopentyl-5-methyl-7-oxo-7,8-dihydropyrido[2,3-d]pyrimidin-2-yl)amino)pyridin-3-yl)-2,7-diazaspiro[4.4]nonan-2-yl)acetyl)-2-azaspiro[3.3]heptan-6-yl)amino)-N-(1,5-dimethyl-1H-pyrazol-3-yl)-6-((methyl-d3)amino)nicotinamide] | 55 to 85% | 55 to 85% | < 50 nM
CC(=O)c1c(C)c2cnc(Nc3ccc(N4CCC5(CCN(CC(=O)N6CC7(CC(Nc8nc(NC(C)C)ccc8C(=O)Nc8ccc(N(C)C)nn8)C7)C6)C5)C4)cn3)nc2n(C2CCCC2)c1=O (stereo not drawn) [CPD-448, 2-((2-(2-(7-(6-((6-acetyl-8-cyclopentyl-5-methyl-7-oxo-7,8-dihydropyrido[2,3-d]pyrimidin-2-yl)amino)pyridin-3-yl)-2,7-diazaspiro[4.4]nonan-2-yl)acetyl)-2-azaspiro[3.3]heptan-6-yl)amino)-N-(6-(dimethylamino)pyridazin-3-yl)-6-(isopropylamino)nicotinamide] | 55 to 85% | 55 to 85% | < 50 nM
CC(C)Nc1ccc(C(=O)Nc2ccc(N(C)C)nn2)c(NC2CC3(C2)CN(C(=O)CN2CCN(Cc4ccc(Nc5ncc6cc7n(c6n5)C5(CCCCC5)CNC7=O)nc4)CC2)C3)n1 [CPD-557, N-(6-(dimethylamino)pyridazin-3-yl)-6-(isopropylamino)-2-((2-(2-(4-((6-((6′-oxo-7′,8′-dihydro-6′H-spiro[cyclohexane-1,9′-pyrazino[1′,2′:1,5]pyrrolo[2,3-d]pyrimidin]-2′-yl)amino)pyridin-3-yl)methyl)piperazin-1-yl)acetyl)-2-azaspiro[3.3]heptan-6-yl)amino)nicotinamide] | > 85% | > 85% | > 100 nM
CC(C)Nc1ccc(C(=O)Nc2ccc(N(C)C)nn2)c(NC2CC3(CC(NC(=O)CN4CCN(Cc5ccc(Nc6ncc7cc8n(c7n6)C6(CCCCC6)CNC8=O)nc5)CC4)C3)C2)n1 (stereo not drawn) [CPD-558, N-(6-(dimethylamino)pyridazin-3-yl)-6-(isopropylamino)-2-((6-(2-(4-((6-((6′-oxo-7′,8′-dihydro-6′H-spiro[cyclohexane-1,9′-pyrazino[1′,2′:1,5]pyrrolo[2,3-d]pyrimidin]-2′-yl)amino)pyridin-3-yl)methyl)piperazin-1-yl)acetamido)spiro[3.3]heptan-2-yl)amino)nicotinamide] | > 85% | > 85% | > 100 nM
CC(=O)c1c(C)c2cnc(Nc3ccc(N4CCN(C5CCN(C(=O)[C@H]6CC[C@H](Nc7nc(C8CC8)ccc7C(=O)Nc7ccc(N(C)C)nn7)CC6)C5)CC4)cn3)nc2n(C2CCCC2)c1=O (stereo partly drawn) [CPD-573, 2-((trans-4-(3-(4-(6-((6-acetyl-8-cyclopentyl-5-methyl-7-oxo-7,8-dihydropyrido[2,3-d]pyrimidin-2-yl)amino)pyridin-3-yl)piperazin-1-yl)pyrrolidine-1-carbonyl)cyclohexyl)amino)-6-cyclopropyl-N-(6-(dimethylamino)pyridazin-3-yl)nicotinamide] | 55 to 85% | 55 to 85% | < 50 nM
CC(=O)c1c(C)c2cnc(Nc3ccc(N4CCN(C5CCN(C(=O)C6(O)CCC(Nc7nc(NC(C)C)ccc7C(=O)Nc7ccc(N(C)C)nn7)CC6)C5)CC4)cn3)nc2n(C2CCCC2)c1=O (stereo not drawn) [CPD-574, 2-((cis-4-(3-(4-(6-((6-acetyl-8-cyclopentyl-5-methyl-7-oxo-7,8-dihydropyrido[2,3-d]pyrimidin-2-yl)amino)pyridin-3-yl)piperazin-1-yl)pyrrolidine-1-carbonyl)-4-hydroxycyclohexyl)amino)-N-(6-(dimethylamino)pyridazin-3-yl)-6-(isopropylamino)nicotinamide] | > 85% | 55 to 85% | < 50 nM
CC(=O)c1c(C)c2cnc(Nc3ccc(N4CCN(C5CCN(C(=O)[C@H]6CC[C@H](Nc7nc(C)ccc7C(=O)Nc7ccc(N(C)C)nn7)CC6)C5)CC4)cn3)nc2n(C2CCCC2)c1=O (stereo partly drawn) [CPD-576, 2-((trans-4-(3-(4-(6-((6-acetyl-8-cyclopentyl-5-methyl-7-oxo-7,8-dihydropyrido[2,3-d]pyrimidin-2-yl)amino)pyridin-3-yl)piperazin-1-yl)pyrrolidine-1-carbonyl)cyclohexyl)amino)-N-(6-(dimethylamino)pyridazin-3-yl)-6-methylnicotinamide] | 55 to 85% | 55 to 85% | > 100 nM
CCc1ccc(C(=O)Nc2ccc(N(C)C)nn2)c(NC23CC(C(=O)N4CCC(N5CCN(c6ccc(Nc7ncc8c(C)c(C(C)=O)c(=O)n(C9CCCC9)c8n7)nc6)CC5)C4)(C2)C3)n1 (stereo not drawn) [CPD-577, 2-((3-(3-(4-(6-((6-acetyl-8-cyclopentyl-5-methyl-7-oxo-7,8-dihydropyrido[2,3-d]pyrimidin-2-yl)amino)pyridin-3-yl)piperazin-1-yl)pyrrolidine-1-carbonyl)bicyclo[1.1.1]pentan-1-yl)amino)-N-(6-(dimethylamino)pyridazin-3-yl)-6-ethylnicotinamide] | > 85% | 55 to 85% | < 50 nM
CCc1ccc(C(=O)Nc2ccc(N(C)C)nn2)c(NC2CC3(CC(NC(=O)CN4CCN(Cc5ccc(Nc6ncc7c(C)c(C(C)=O)c(=O)n(C8CCCC8)c7n6)nc5)CC4)C3)C2)n1 (stereo not drawn) [CPD-578, 2-((6-(2-(4-((6-((6-acetyl-8-cyclopentyl-5-methyl-7-oxo-7,8-dihydropyrido[2,3-d]pyrimidin-2-yl)amino)pyridin-3-yl)methyl)piperazin-1-yl)acetamido)spiro[3.3]heptan-2-yl)amino)-N-(6-(dimethylamino)pyridazin-3-yl)-6-ethylnicotinamide] | 55 to 85% | 55 to 85% | < 50 nM
CC(=O)c1c(C)c2cnc(Nc3ccc(CN4CCN(CC(=O)NC5CC6(C5)CC(Nc5nc(C(C)C)ccc5C(=O)Nc5ccc(N(C)C)nn5)C6)CC4)cn3)nc2n(C2CCCC2)c1=O (stereo not drawn) [CPD-579, 2-((6-(2-(4-((6-((6-acetyl-8-cyclopentyl-5-methyl-7-oxo-7,8-dihydropyrido[2,3-d]pyrimidin-2-yl)amino)pyridin-3-yl)methyl)piperazin-1-yl)acetamido)spiro[3.3]heptan-2-yl)amino)-N-(6-(dimethylamino)pyridazin-3-yl)-6-isopropylnicotinamide] | 55 to 85% | 55 to 85% | < 50 nM
CC(=O)c1c(C)c2cnc(Nc3ccc(N4CCN(C5CCN(C(=O)C67CC(Nc8nc(C(C)C)ccc8C(=O)Nc8ccc(N(C)C)nn8)(C6)C7)C5)CC4)cn3)nc2n(C2CCCC2)c1=O (stereo not drawn) [CPD-580, 2-((3-(3-(4-(6-((6-acetyl-8-cyclopentyl-5-methyl-7-oxo-7,8-dihydropyrido[2,3-d]pyrimidin-2-yl)amino)pyridin-3-yl)piperazin-1-yl)pyrrolidine-1-carbonyl)bicyclo[1.1.1]pentan-1-yl)amino)-N-(6-(dimethylamino)pyridazin-3-yl)-6-isopropylnicotinamide] | 55 to 85% | 55 to 85% | < 50 nM
CC(=O)c1c(C)c2cnc(Nc3ccc(CN4CCN(CC(=O)N5CCC6(CCC(Nc7nc(C8CC8)ccc7C(=O)Nc7ccc(N(C)C)nn7)C6)C5)CC4)cn3)nc2n(C2CCCC2)c1=O (stereo not drawn) [CPD-581, 2-((2-(2-(4-((6-((6-acetyl-8-cyclopentyl-5-methyl-7-oxo-7,8-dihydropyrido[2,3-d]pyrimidin-2-yl)amino)pyridin-3-yl)methyl)piperazin-1-yl)acetyl)-2-azaspiro[4.4]nonan-7-yl)amino)-6-cyclopropyl-N-(6-(dimethylamino)pyridazin-3-yl)nicotinamide] | 55 to 85% | 55 to 85% | < 50 nM
CCc1ccc(C(=O)Nc2ccc(N(C)C)nn2)c(NC2CCC3(CCN(C(=O)CN4CCN(Cc5ccc(Nc6ncc7c(C)c(C(C)=O)c(=O)n(C8CCCC8)c7n6)nc5)CC4)C3)C2)n1 (stereo not drawn) [CPD-582, 2-((2-(2-(4-((6-((6-acetyl-8-cyclopentyl-5-methyl-7-oxo-7,8-dihydropyrido[2,3-d]pyrimidin-2-yl)amino)pyridin-3-yl)methyl)piperazin-1-yl)acetyl)-2-azaspiro[4.4]nonan-7-yl)amino)-N-(6-(dimethylamino)pyridazin-3-yl)-6-ethylnicotinamide] | 55 to 85% | 55 to 85% | < 50 nM

Source: patent publication US20260297081A1, “COMPOUNDS AND METHODS OF TREATING CANCERS” (Cullgen Inc., priority 2023, published 2026)
